Biological target: Human recombinant DHX9 protein (Homo sapiens (Human), UniProt Q08211)
Assay: DHX9 ATPase assay (ADP-Glo)
Assay type: biochemical
Conditions: for IC50: read-out: DHX9 Biochemical Inflection Point

Human recombinant DHX9 protein, sequence (Q08211 whole entry): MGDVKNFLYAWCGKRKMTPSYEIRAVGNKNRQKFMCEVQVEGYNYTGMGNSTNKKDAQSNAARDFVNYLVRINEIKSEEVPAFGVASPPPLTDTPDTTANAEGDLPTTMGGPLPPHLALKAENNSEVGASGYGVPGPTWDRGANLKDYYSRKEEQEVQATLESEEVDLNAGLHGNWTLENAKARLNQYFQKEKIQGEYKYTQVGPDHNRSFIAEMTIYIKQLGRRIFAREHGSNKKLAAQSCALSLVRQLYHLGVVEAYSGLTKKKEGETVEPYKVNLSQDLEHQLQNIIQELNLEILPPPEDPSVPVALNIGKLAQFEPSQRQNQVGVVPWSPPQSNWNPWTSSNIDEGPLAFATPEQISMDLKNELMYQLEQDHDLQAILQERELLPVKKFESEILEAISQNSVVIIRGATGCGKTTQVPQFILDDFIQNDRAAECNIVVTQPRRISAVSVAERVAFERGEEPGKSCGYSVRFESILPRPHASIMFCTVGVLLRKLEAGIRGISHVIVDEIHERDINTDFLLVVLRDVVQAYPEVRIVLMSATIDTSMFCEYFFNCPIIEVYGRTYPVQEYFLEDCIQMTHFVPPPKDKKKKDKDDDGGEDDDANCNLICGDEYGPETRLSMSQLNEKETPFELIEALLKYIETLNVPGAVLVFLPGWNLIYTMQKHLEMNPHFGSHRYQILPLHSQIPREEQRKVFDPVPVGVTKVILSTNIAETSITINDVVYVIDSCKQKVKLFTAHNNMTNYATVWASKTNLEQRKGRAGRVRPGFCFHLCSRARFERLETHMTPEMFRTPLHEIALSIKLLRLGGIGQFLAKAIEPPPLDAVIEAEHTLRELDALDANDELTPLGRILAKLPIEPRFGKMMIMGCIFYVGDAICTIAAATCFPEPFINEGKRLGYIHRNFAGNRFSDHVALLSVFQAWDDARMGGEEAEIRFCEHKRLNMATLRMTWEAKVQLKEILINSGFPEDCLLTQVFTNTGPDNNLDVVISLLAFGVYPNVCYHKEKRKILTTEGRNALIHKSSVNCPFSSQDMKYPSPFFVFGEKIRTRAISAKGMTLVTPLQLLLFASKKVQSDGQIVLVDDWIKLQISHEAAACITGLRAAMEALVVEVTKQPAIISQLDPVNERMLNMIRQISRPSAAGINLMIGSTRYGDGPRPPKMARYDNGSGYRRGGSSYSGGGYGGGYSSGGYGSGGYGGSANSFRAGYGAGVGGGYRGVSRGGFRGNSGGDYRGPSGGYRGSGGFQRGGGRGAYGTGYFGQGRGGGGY

Row | Structure (SMILES) | DHX9 Biochemical Max Inhibition | IC50 [nM]
1 | Cn1cc(C(=O)Nc2cc(Cl)cc(NS(C)(=O)=O)c2)cc1-c1ncc(OC2CN(CC(F)F)C2)cc1F [Example 614] | 70.4 | 14.6
2 | CS(=O)(=O)Nc1cc(Cl)cc(NC(=O)c2cccc(-n3cccn3)c2)c1 [Example 117] | 55.5% | 104
3 | CS(=O)(=O)Nc1cc(Cl)cc(NC(=O)c2cnn(-c3c(F)cccc3OCc3cnco3)c2)c1 [Example 721] | 68.1 | 231
4 | CC(=O)N1CC2(CC(n3cc(C(=O)Nc4cc(Cl)cc(NS(C)(=O)=O)c4)cn3)C2)C1 [Example 313] | 63.6% | 147
5 | Cc1cccnc1-n1cc(C(=O)Nc2cc(Br)cc(NS(C)(=O)=O)c2)cn1 [Example 49] | 58.6% | 49.7
6 | Cc1sc(C(=O)Nc2cc(Cl)cc(NS(C)(=O)=O)c2)cc1-c1ccc(OC(C)(C)C)cn1 [Example 380] | 68.7% | 33.5
7 | Cc1sc(C(=O)Nc2cc(Br)cc(NS(C)(=O)=O)c2)cc1-c1ccccc1O [Example 20] | 62.5% | 57.2
8 | CC(=O)N1CCC(n2cc(C(=O)Nc3cc(Cl)cc(NS(C)(=O)=O)c3)cn2)CC1 [Example 317] | 63.8% | 272
9 | CS(=O)(=O)Nc1cc(Cl)cc(NC(=O)c2cc(-c3cccnc3)cs2)c1 [Example 116, N-(3-chloro-5-(methylsulfonamido)phenyl)-4-(pyridin-3-yl)thiophene-2-carboxamide] | 56.6% | 
10 | Cc1sc(C(=O)Nc2cc(Cl)cc(NS(C)(=O)=O)c2)cc1-c1c(F)cc(F)c[n+]1[O-] [Example 736] | 70.3 | 54.9
11 | Cc1cccnc1-c1csc(C(=O)Nc2cc(Cl)cc(N(C)S(C)(=O)=O)c2)c1 [Example 374] | 60% | 579
12 | CN1C(=O)N(c2ccc(-c3cc(C(=O)Nc4cc(Cl)cc(NS(C)(=O)=O)c4)cn3C)nc2)C(=O)C1(C)C [Example 603] | 83.4 | 10.9
13 | Cc1sc(C(=O)Nc2cc(Cl)cc(NS(C)(=O)=O)c2)cc1-c1ncc(OC2CNC2)cn1 [Example 636, 4-[5-(azetidin-3-yloxy)pyrimidin-2-yl]-N-(3-chloro-5-methanesulfonamidophenyl)-5-methylthiophene-2-carboxamide] | 70.3 | 12.2
14 | CS(=O)(=O)Nc1cc(Cl)cc(NC(=O)c2cc(-c3ncc(F)cn3)c(C3CC3)s2)c1 [Example 448] | 66.7 | 1750
15 | CS(=O)(=O)Nc1cc(Cl)cc(NC(=O)c2cc(-c3ncccc3COc3cc(F)cc(F)c3)cs2)c1 [Example 228] | 67.2% | 65.5
16 | Cn1cc(C(=O)Nc2cc(Cl)cc(NS(C)(=O)=O)c2)cc1-c1ncc(N2CCC(C(F)(F)F)CC2)cc1F [Example 472] | 60.9 | 211
17 | CN(C)C(=O)N1CCN(c2ccc(-n3cc(C(=O)Nc4cc(Cl)cc(NS(C)(=O)=O)c4)cn3)nc2)CC1 [Example 89] | 64.9% | 14.4
18 | CS(=O)(=O)Nc1cc(Cl)cc(NC(=O)c2cnn([C@@H]3CC[C@H]3O)c2)c1 (single isomer, unassigned) [Example 306a] | 70.6% | 127
19 | CSc1cccnc1-n1cc(C(=O)Nc2cc(Cl)cc(NS(C)(=O)=O)c2)cn1 [Example 219] | 62.3% | 40.6
20 | CS(=O)(=O)Nc1cc(Cl)cc(NC(=O)c2cc(-c3ccc(N4CCOCC4)cn3)n(CC(F)(F)F)c2)c1 [Example 275] | 75.1% | 76.2
21 | CS(=O)(=O)Nc1cc(Cl)cc(NC(=O)c2cnn(-c3ncccc3OCc3cncnc3)c2)c1 [Example 188] | 66.2% | 18.8
22 | Cc1cc(C(=O)Nc2cc(Cl)cc(NS(C)(=O)=O)c2)cn1-c1ccc(N2CCC(F)(F)C2)cn1 [Example 396] | 68.9 | 3.6
23 | CS(=O)(=O)Nc1cc(Cl)cc(NC(=O)c2cc(-c3ncc(N4CC(F)(F)C4)cc3F)cs2)c1 [Example 488] | 61.1 | 67.9
24 | Cc1sc(C(=O)Nc2cc(Cl)cc(NS(C)(=O)=O)c2)cc1-c1ncccc1CC(=O)N(C)C [Example 385] | 78.1% | 83.8
25 | Cc1cccnc1-c1cc(C(=O)Nc2cc(Cl)cc(NS(C)(=O)=O)c2)cn1CC(F)F [Example 143, N-(3-chloro-5-(methylsulfonamido)phenyl)-1-(2,2-difluoroethyl)-5-(3-methylpyridin-2-yl)-1H-pyrrole-3-carboxamide] | 66.8% | 
26 | Cc1cccnc1-c1csc(C(=O)Nc2cc(Cl)cc(NS(C)(=O)=O)c2)c1C [Example 684] | 50.6 | 8310
27 | Cc1sc(C(=O)Nc2cc(Cl)cc(NS(C)(=O)=O)c2)cc1-c1ncc(F)cc1-c1cncc(F)c1 [Example 607] | 75.9 | 13.1

Row | Structure (SMILES) | DHX9 Biochemical Max Inhibition | IC50 [nM]
28 | Cn1nc(C(=O)Nc2cc(Cl)cc(NS(C)(=O)=O)c2)cc1-c1ccccn1 [Example 140] | 63.3% | 300
29 | Cn1cc(C(=O)Nc2cc(Cl)cc(NS(C)(=O)=O)c2)cc1-c1ccc(C(F)(F)F)cn1 [Example 569] | 75.9 | 55.6
30 | CS(=O)(=O)Nc1cc(Cl)cc(NC(=O)c2cnn(-c3c(F)cccc3OCc3cncc(F)c3)c2)c1 [Example 718] | 72.7 | 15.7
31 | CCS(=O)(=O)Nc1cc(Cl)cc(NC(=O)c2cc(-c3ncccn3)c(C)s2)c1 [Example 27] | 68% | 6.4
32 | CS(=O)(=O)Nc1cc(Cl)cc(NC(=O)c2cnn([C@H]3CCC[C@@H](O)C3)c2)c1 (single isomer, unassigned) [Example 152b] | 69.9% | 126
33 | CS(=O)(=O)Nc1cc(Cl)cc(NC(=O)c2cc3ncccc3s2)c1 [Example 289] | 66.9% | 80.6
34 | Cn1cc(C(=O)Nc2cc(Cl)cc(NS(C)(=O)=O)c2)cc1-c1ccc(C2CCOCC2)cn1 [Example 704] | 78.1 | 12.5
35 | Cc1sc(C(=O)Nc2cc(Cl)cc(NS(C)(=O)=O)c2)cc1-c1c(F)cc(F)cc1F [Example 378] | 80.9% | 874
36 | CS(=O)(=O)Nc1cc(Br)cc(NC(=O)c2ccc3c(c2)[nH]c(=O)n3Cc2ccccc2)c1 [Example 99, 1-benzyl-N-(3-bromo-5-(methylsulfonamido)phenyl)-2-oxo-2,3-dihydro-1H-benzo[d]imidazole-5-carboxamide] | 50.9% | 298
37 | CS(=O)(=O)Nc1cc(Cl)cc(NC(=O)c2cnn(-c3ncccc3OCc3ccncc3)c2)c1 [Example 64] | 61.8% | 59.9
38 | Cn1cc(C(=O)Nc2cc(Cl)cc(NS(C)(=O)=O)c2)cc1-c1ncc(Cl)cn1 [Example 577] | 91.5 | 24.9
39 | Cc1sc(C(=O)Nc2cc(Cl)cc(NS(C)(=O)=O)c2)cc1-c1ncc(N2CCCC(F)(F)C2)cc1F [Example 482] | 63.3 | 66.5
40 | CS(=O)(=O)Nc1cc(Cl)cc(NC(=O)c2cc(-c3ncccc3Oc3cccnc3)cs2)c1 [Example 239] | 67.7% | 8
41 | CS(=O)(=O)Nc1cc(Cl)cc(NC(=O)c2cc(Br)cs2)c1 [Example 241] | 63.8% | 115
42 | CS(=O)(=O)Nc1cc(Cl)cc(NC(=O)c2cnn(C3CCNCC3)c2)c1 [Example 145, N-(3-chloro-5-(methylsulfonamido)phenyl)-1-(piperidin-4-yl)-1H-pyrazole-4-carboxamide] | 67.9% | 58
43 | Cc1sc(C(=O)Nc2cc(Cl)cc(NS(C)(=O)=O)c2)cc1N1CCCC1=O [Example 434] | 67.1 | 51.1
44 | CCS(=O)(=O)Nc1cc(Cl)cc(NC(=O)c2cc(-c3ncc(F)cc3F)c(C)s2)c1 [Example 347] | 72.1% | 34
45 | CS(=O)(=O)Nc1cc(Cl)cc(NC(=O)c2cc3cc(C(F)(F)F)ccc3s2)c1 [Example 326] | 64.5% | 8110
46 | CS(=O)(=O)Nc1cc(Cl)cc(NC(=O)c2cnn(-c3ncccc3COc3cncc(F)c3)c2)c1 [Example 262] | 66.5% | 120
47 | Cc1sc(C(=O)Nc2cc(Cl)cc(NS(C)(=O)=O)c2)cc1-c1ncc(N2CCC3(C2)CC3(F)F)cc1F (stereo not drawn) [Example 480] | 67.4 | 146
48 | Cc1cccnc1-c1cc(C(=O)Nc2cc(Cl)cc(NS(C)(=O)=O)c2)cn1C [Example 81] | 66.7% | 
49 | Cc1sc(C(=O)Nc2cc(Cl)cc(NS(C)(=O)=O)c2)c(F)c1-c1ncc(OC(C)C)cn1 [Example 683] | 62.5 | 1710
50 | Cn1cc(C(=O)Nc2cc(Cl)cc(NS(C)(=O)=O)c2)cc1-c1ncc(F)cc1OC(F)F [Example 363] | 94.3% | 25.2
51 | Cn1cc(C(=O)Nc2cc(Cl)cc(NS(C)(=O)=O)c2)nc1-c1ccccc1 [Example 155, N-(3-chloro-5-(methylsulfonamido)phenyl)-1-methyl-2-phenyl-1H-imidazole-4-carboxamide] | 66.4% | 126
52 | CCS(=O)(=O)Nc1cc(Cl)cc(NC(=O)c2cc(-c3ncc(F)cc3F)n(C)c2)c1 [Example 543] | 60.2 | 48.6
53 | CCS(=O)(=O)Nc1cc(Cl)cc(NC(=O)c2cc(-c3ccc(F)cn3)n(C)c2)c1 [Example 579] | 65.2 | 31.1
54 | CS(=O)(=O)Nc1cc(Cl)cc(NC(=O)c2cc3ccc(F)cc3s2)c1 [Example 294] | 59% | 1610

Source: US20240316047A1, “INHIBITORS OF RNA HELICASE DHX9 AND USES THEREOF” (ACCENT THERAPEUTICS, INC., priority 2022, published 2024)
